Results taken from EP3095872A1, “A METHOD OF PRODUCING ALPHA AMINO ACIDS” (Evonik Degussa GmbH, priority 2015, dated 2016).
Read-outs that look alike come from different tables or passages of the source. Marks after values point to notes of the source that are not given here.

Legend:
Type in all cases: biochemical
P450Cla [1] = assay: conversion of fatty acid substrate with P450Cla, oxidant O2 + NADPH; details: 10 mM substrate, without CamAB
Experimental: (§1) P450BSß was expressed and purified as described in Matsunaga et al. 2001. P450Cla was ordered as synthetic gene and cloned into the pET28a expression vector. Efficient expression of P450Cla was obtained by applying the expression protocol (TBmedia, 20 h, 30 °C) as described in Nazor et al. (2008) under heading 'shake flask expression of P450 BM3'. Purification was performed according to the published protocol (Girhard M., et al, 2007) with minor alterations as (unreported) precipitation of P450Cla during dialysis occured. The dialysis buffer was supplemented with 300 mM NaCl to prevent precipitation of P450Cla. Next, hydroxylation of fatty acid substrates 1a-d (scheme 2) was performed employing purified P450Cla and P450BSß. The oxidant source was varied in case of P450Cla while only H2O2 was used with P450BSß. Table 2: Conversion of fatty acid substrates 1a-d with P450Cla and CYPBSß
(§2) All reactions were performed in closed glass vials for 24 h reaction time at RT with 170 rpm shaking. The reactions were quenched by addition of 100 µl 5 N HCl. Extractions were performed with 500 µl EtOAc containing 0.1 % 1-decanol as internal standard. After drying over Na2SO4, derivatization of acids to corresponding methyl esters was realized by mixing 150 µl of organic phase with 90µl of MeOH prior to supplementation of 20 µl of TMSCHN2 for esterification. Samples were analyzed by GC-FID and GC-MS. […]

P450Cla [2] = assay: conversion of fatty acid substrates 1a-d with P450Cla, oxidant H2O2; details: 3 µM P450Cla, 24 h, RT, values marked a based on substrate depletion
Experimental: P450Cla was ordered as synthetic gene and cloned into the pET28a expression vector. […] The dialysis buffer was supplemented with 300 mM NaCl to prevent precipitation of P450Cla. Next, hydroxylation of fatty acid substrates 1a-d (scheme 2) was performed employing purified P450Cla and P450BSß. The oxidant source was varied in case of P450Cla while only H2O2 was used with P450BSß.
Reaction conditions for P450Cla: 3µM P450Cla; Tris-HCl (pH 7.5; 0.1 M); 2.5 to 5 % EtOH (cosolvent for the substrate).
All reactions were performed in closed glass vials for 24 h reaction time at RT with 170 rpm shaking. The reactions were quenched by addition of 100 µl 5 N HCl. Extractions were performed with 500 µl EtOAc containing 0.1 % 1-decanol as internal standard. After drying over Na2SO4, derivatization of acids to corresponding methyl esters was realized by mixing 150 µl of organic phase with 90µl of MeOH prior to supplementation of 20 µl of TMSCHN2 for esterification. Samples were analyzed by GC-FID and GC-MS. Commercial standards of 2-hydroxycaproic acid (2a), 2-hydroxyoctanoic acid (2b) and 2-oxooctanoic acid (4b) were used as references. Calibration curves were obtained from standards 1a-d and 2a-b prepared identically to the reaction mixtures (5 concentration points from 10 µM to 1 mM).

P450Cla+CamAB = assay: conversion of fatty acid substrate with P450Cla+CamAB, oxidant O2 + NADPH; details: 10 mM substrate, % of the product area of the reaction with H2O2 and 10 mM 1d
Experimental: as §1, §2

HICDH-proteins = assay: spectrophotometric monitoring (340 nm) and GC-FID of HICDH oxidation and reduction
P450Cla [3] = assay: preparative scale conversion of decanoic acid with P450Cla; details: 20 mM decanoic acid; 4 µM P450Cla; 32 mM H2O2 in total; 24 h
Experimental: Synthesis of 2-hydroxydecanoic acid was done in 10 ml Tris-HCl (pH 7.5; 0.1 M) employing 4µM P450Cla, 20 mM decanoic acid (38.8 mg of the sodium salt) and 2.5 % EtOH (RT, 170 rpm shaking). Hydrogen peroxide (1.6 mM) was added every 30 min (20 times; in total 32 mM) to the reaction mixture. After 24 h reaction time, 1 ml 5 N HCl was added to stop the reaction. Product extraction was repeated five times using 5 ml EtOAc prior to purification by silica chromatography column using EtOAc/petroleum ether/acetic acid as mobile phase (80:20:1.2). Fractions containing the desired product were combined and concentrated by evaporation under reduced pressure. With the present set up, 16 mg of 2-hydroxydecanoic acid (46 % isolated yield, TTNP450 ∼ 3040) was isolated which was confirmed by GC-MS, 1 H- and 13C-NMR (Figure 1).

P450Cla [4] = assay: alpha-hydroxylation of selected fatty acids, catalytic and kinetic characterization of P450Cla; details: for Product: 10 mM fatty acid, 0.5 µM P450Cla (C10), 1 µM (C8, C6), Tris-HCl pH 7.5, RT, triplicate; for specific activity U mg^-1: P450Cla 48 kDa, values only relevant at initial rate; for Coupling*: mol product per mol H2O2
Experimental: Hydroxylation of selected fatty acids was carried out using a fresh preparation of purified P450Cla. P450Cla was characterised for key catalytic parameters specific activities were determined for three selected substrates as shown in Table 1. Table 1: Catalytic and kinetic characterization of P450Cla for conversion of 10 mM of selected fatty acids. All reactions were performed in triplicate.
Conditions: 0.5 µM P450Cla used in reactions with C10; 1 µM P450Cla used in reactions with C8 and C6; All reactions were performed in Tris-HCl (pH 7.5, 0.1 M) at RT and 170 rpm shaking in closed glass vials; *molProduct^-1 molH2O2^-1; ^§molecular weight of P450Cla is 48 kDa, values only relevant at initial rate.

Question: `CCCCCCCCCCCC(=O)O` [Substrate 1d, dodecanoic acid] was tested. Which Conversion (P450Cla [1]) did it give?
Answer: The Conversion was 0%.

Question: What about the Conversion (P450Cla [2]; 5 mM substrate, H2O2 9.6 mM total) of the same compound?
Answer: The Conversion was >99^a %.

Question: What about the Conversion (P450Cla [2]; 10 mM substrate, H2O2 19.2 mM total) of the same compound?
Answer: The Conversion was >99^a %.

Question: And the Conversion (P450Cla+CamAB)?
Answer: Its Conversion is 5^b %.

Question: For `CCCCCCC(=O)C(=O)O` [Substrate 4b, 2-oxooctanoic acid], which “Reduction to 2-hydroxy octanoic acid 2b (GC-FID)” value (HICDH-proteins) is on record?
Answer: The value was “confirmed”.

Question: For `CCCCCCCCCC(=O)O` [Substrate C10, decanoic acid], which TTNP450 (P450Cla [3]) is on record?
Answer: The TTNP450 was roughly 3040.

Question: And the “Selectivity [% α-OH]” value (P450Cla [4])?
Answer: Its value is greater than 90%.

Question: What about the specific activity (P450Cla [4]) of the same compound?
Answer: Its specific activity is no less than 1 U mg^-1.

Question: What about the Product (P450Cla [4]; 5 min, H2O2 0.8 mM) of the same compound?
Answer: Its Product is 0.67 ± 0.04 mM.

Question: What about the Product (P450Cla [4]; 15 min, H2O2 0.8 mM) of the same compound?
Answer: Its Product is 0.6 ± 0.02 mM.

Question: What about the Product (P450Cla [4]; 30 min, H2O2 1.6 mM) of the same compound?
Answer: The Product was 1.2 ± 0.06 mM.

Question: What about the “Selectivity [% α-OH]” value (P450Cla [4]; 5 min, H2O2 0.8 mM) of the same compound?
Answer: The value was greater than 95%.

Question: And the TON (P450Cla [4]; 5 min, H2O2 0.8 mM)?
Answer: Its TON is 266 min⁻¹.

Question: And the TTN (P450Cla [4]; 5 min, H2O2 0.8 mM)?
Answer: The TTN was 1330.

Question: What about the “specific activity U mg^-1” value (P450Cla [4]; 5 min, H2O2 0.8 mM) of the same compound?
Answer: Its value is 5.5 U mg^-1.

Question: And the “Coupling*” value (P450Cla [4]; 5 min, H2O2 0.8 mM)?
Answer: The value was 83%.

Question: And the “Selectivity [% α-OH]” value (P450Cla [4]; 15 min, H2O2 0.8 mM)?
Answer: The value was greater than 95%.

Question: And the TON (P450Cla [4]; 15 min, H2O2 0.8 mM)?
Answer: The TON was 80 min⁻¹.

Question: What about the TTN (P450Cla [4]; 15 min, H2O2 0.8 mM) of the same compound?
Answer: Its TTN is 1207.

Question: And the “specific activity U mg^-1” value (P450Cla [4]; 15 min, H2O2 0.8 mM)?
Answer: The value was 1.7 U mg^-1.

Question: And the “Coupling*” value (P450Cla [4]; 15 min, H2O2 0.8 mM)?
Answer: The value was 75%.

Question: And the “Selectivity [% α-OH]” value (P450Cla [4]; 30 min, H2O2 1.6 mM)?
Answer: The value was greater than 95%.

Question: And the TON (P450Cla [4]; 30 min, H2O2 1.6 mM)?
Answer: The TON was 80 min⁻¹.

Question: What about the TTN (P450Cla [4]; 30 min, H2O2 1.6 mM) of the same compound?
Answer: Its TTN is 2406.

Question: What about the “specific activity U mg^-1” value (P450Cla [4]; 30 min, H2O2 1.6 mM) of the same compound?
Answer: Its value is 1.7 U mg^-1.

Question: What about the “Coupling*” value (P450Cla [4]; 30 min, H2O2 1.6 mM) of the same compound?
Answer: The value was 75%.
